The compounds below were run against T1, Bifunctional epoxide hydrolase 2 (Homo sapiens, UniProt P34913) (assay: Competitive inhibition of human recombinant soluble epoxide hydrolase using [3H]-tDPPO as substrate).
T1 sequence (P34913 whole entry): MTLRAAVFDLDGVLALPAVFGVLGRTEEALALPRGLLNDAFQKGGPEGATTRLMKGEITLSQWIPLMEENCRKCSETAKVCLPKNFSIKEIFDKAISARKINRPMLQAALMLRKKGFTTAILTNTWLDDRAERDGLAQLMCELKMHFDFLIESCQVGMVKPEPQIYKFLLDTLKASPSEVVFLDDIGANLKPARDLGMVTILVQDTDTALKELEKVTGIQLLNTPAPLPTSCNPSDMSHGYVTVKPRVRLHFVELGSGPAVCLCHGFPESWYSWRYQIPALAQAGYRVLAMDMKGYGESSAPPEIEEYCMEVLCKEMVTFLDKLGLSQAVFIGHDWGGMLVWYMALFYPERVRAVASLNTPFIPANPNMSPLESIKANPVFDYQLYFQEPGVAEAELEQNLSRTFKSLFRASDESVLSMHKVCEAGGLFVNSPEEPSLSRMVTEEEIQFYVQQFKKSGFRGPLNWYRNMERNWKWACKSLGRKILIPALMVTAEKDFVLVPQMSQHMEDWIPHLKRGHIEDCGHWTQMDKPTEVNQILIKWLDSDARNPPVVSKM

Structure (SMILES)	Ki
C[C@]12CC[C@@H]3c4ccc(O)cc4C[C@@H](CCCCCCCCC[S+]([O-])CCCC(F)(F)C(F)(F)F)[C@H]3[C@@H]1CC[C@@H]2O (stereo partly specified) [FULVESTRANT]	26 nM

These compounds were tested against T1, Bifunctional epoxide hydrolase 2 (assay: Inhibition of human recombinant soluble epoxide hydrolase using (cyano(6-methoxy-naphthelen-2-yl)methyl trans-[(3-phenyl-oxiran-2-yl)methyl] carbonate) as substrate preincubated for 5 mins prior to substrate addition by fluorescence assay).

Structure (SMILES)	IC50
[O-][S+](Cc1ccccc1)Cc1ccccc1	70000 nM
CCCCCCCCC(=O)CCCCCCCC	> 100000 nM
CCCCCCCCS(=O)(=O)CCCCCCCC	> 100000 nM
CCCCCCCC[S+]([O-])Cc1ccccc1 (stereo unspecified)	6800 nM
CCCCCCCC[S+]([O-])CCCCCCCC	1350 nM
O=C(Cc1ccccc1)Nc1ccccc1	11000 nM
O=C(Nc1ccccc1)Nc1ccccc1	400 nM
CCCCCCCCSCCCCCCCC [DIOCTYLSULFANE]	> 100000 nM
O=c1c2ccccc2[se]n1-c1ccccc1 [EBSELEN]	2200 nM
C[C@]12CC[C@@H]3c4ccc(O)cc4C[C@@H](CCCCCCCCC[S+]([O-])CCCC(F)(F)C(F)(F)F)[C@H]3[C@@H]1CC[C@@H]2O (stereo partly specified) [FULVESTRANT]	6 nM
